Target: T1, ArnT (undecaprenyl phosphate-alpha-4-amino-4-deoxy-L-arabinose arabinosyl transferase) (Pseudomonas aeruginosa, UniProt Q02R27)
T1 sequence (Q02R27 1-549): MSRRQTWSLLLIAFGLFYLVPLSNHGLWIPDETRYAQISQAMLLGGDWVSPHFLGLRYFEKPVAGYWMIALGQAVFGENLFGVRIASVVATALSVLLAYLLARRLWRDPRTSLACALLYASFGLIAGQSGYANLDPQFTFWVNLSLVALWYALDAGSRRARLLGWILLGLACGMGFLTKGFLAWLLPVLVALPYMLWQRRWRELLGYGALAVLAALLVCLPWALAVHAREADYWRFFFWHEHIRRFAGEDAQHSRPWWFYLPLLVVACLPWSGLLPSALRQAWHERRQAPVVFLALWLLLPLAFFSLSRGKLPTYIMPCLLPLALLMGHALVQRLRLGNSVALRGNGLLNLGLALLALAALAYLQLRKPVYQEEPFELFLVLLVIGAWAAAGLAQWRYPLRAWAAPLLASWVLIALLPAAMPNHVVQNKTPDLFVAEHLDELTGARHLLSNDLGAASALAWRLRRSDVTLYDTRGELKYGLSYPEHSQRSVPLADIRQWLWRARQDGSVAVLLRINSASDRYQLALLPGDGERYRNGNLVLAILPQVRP
Assay: intrinsic tryptophan fluorescence quenching titration, one-site binding fit

Kd: ~10 µM
SMILES: C[C@@]12CC[C@@H]3[C@@](CC[C@@H]4[C@@](C)(COC(=O)C(=O)O)CCC[C@]43C)(CC1)C2 [FDO-H]
